In US4636490A, “Novel peptidic derivatives inhibiting gastric secretion, process for preparing them and drugs containing them” (Sanofi, priority 1983, dated 1987):
Residues, ends and D or L forms follow the SMILES beside them. *: point of attachment. Cbz = O=C(OCc1ccccc1)*; Boc = CC(C)(C)OC(=O)*

Experiments:
[1] = tested on: gastric secretion stimulated by the gastrin; assay: Antagonist effect: inhibition of gastrin (minigastrin)-stimulated acid secretion, stomach of a reperfused, anaesthetized rat; assay type: in vivo
Description: (§1) The compounds according to the invention were studied as far as their therapeutical properties are concerned. More particularly, these compounds were studied in vivo as far as their gastric secretory effect in the rat is concerned. The model chosen for measuring the secretory effect is that of the stomach of a reperfused, anaesthetized rat. The protocol followed is a modification of the one described previously by Ghosh and Schild. A male rat of Wistar strain, weighing 300 g, having fasted for 18 hours, is anaesthetized with urethane (10% solution, 1.5 ml/100 g i.p.). A tracheotomy is then made, as well as a catheterism of the vein of the penis which will allow i.v. administration of the peptides. A cannula is then placed in the oesophagus up to the cardiac orifice and a second cannula in the duodenum (by a duodenotomy made about 3 cm from the pylorus) up to the antral gastric zone. A propionic-succinic solute (pH 5.5) which gives a linear variation of the pH as a function of the concentration of H^+ ions is used for perfusing the stomach in open or closed circuit with a flow rate of 3 ml/min. The body temperature, as well as that of the solute, is monitored and maintained at 30° C. The acid secretion of the stomach will bring about a variation in pH detected by the glass half-cell and recorded as a function of time. After stabilization of the basal secretion, gastrin is injected by the intravenous route, either in perfusion or in a single injection. The response is recorded as a function of time and the quantity of acid secretion is measured on the recording by difference with the basal secretion. The same experiment is carried out either by injecting the peptide to be studied i.v. on a plateau of acid secretion stimulated by the gastrin, or by associating the peptide with the stimulant in variable ratios of concentration. Finally, the peptide is administered alone at different doses in order to examine its agonist effect.

[2] = tested on: gastric secretion; assay: Agonist effect: gastric secretory effect of the peptide administered alone i.v., stomach of a reperfused, anaesthetized rat; assay type: in vivo; conditions: anaesthetized male Wistar rat
Description: as §1

[3] = agonist minigastrin 0.6 μg/kg (single), dose of antagonist 1.5 mg/kg i.v.

Molecule	Inhibiting effect (%) ([1]; agonist minigastrin 0.6 μg/kg (single), dose of antagonist 1.2 mg/kg i.v.)	Secretary effect (40 mins.) ([2]; dose 5000 μg/kg) [μmol H^+]	Inhibiting effect (%) [1, 3] [%]	Secretary effect (40 mins.) ([2]; dose 10000 μg/kg) [μmol H^+]	Inhibiting effect (%) ([1]; agonist minigastrin 1.5 μg/kg/hr (perfusion), dose of antagonist 1.5 mg/kg i.v.)	Secretary effect (40 mins.) ([2]; dose 1000 μg/kg) [μmol H^+]
CSCC[C@H](NC(=O)[C@H](Cc1c[nH]c2ccccc12)NC(=O)CNC(=O)[C@H](Cc1ccc(O)cc1)NC(=O)OC(C)(C)C)C(=O)N[C@@H](CC(=O)O)C(N)=O [Example 4, Boc--Tyr--Gly--Trp--Met--Asp--NH2] (Boc-YGWMD-NH2)	50.4	0.1				
CSCC[C@H](NC(=O)[C@H](Cc1c[nH]c2ccccc12)NC(=O)CNC(=O)[C@H](Cc1ccc(O)cc1)NC(=O)[C@H](C)NC(=O)[C@H](CCC(=O)O)NC(=O)OCc1ccccc1)C(=O)N[C@@H](CC(=O)O)C(N)=O [Example 5, Z--Glu--Ala--Tyr--Gly--Trp--Met--Asp--NH2] (Cbz-EAYGWMD-NH2)			50	0		
Z--Tyr(HSO3)--Met--Gly--Trp--Met--Asp--NH2 [Example 3]			47		47.4	0.15
